Values joined by “and” are separate entries in the source; they are usually repeats but may differ in a detail not shown here. Identical values can stand only once.
Columns and labels:
BT-549 = test: cells; format: functional, cell-based; details: Homo sapiens
Description: SANGER: Inhibition of human BT-549 cell growth in a cell viability assay.

ZR-75-30 = test: cells; format: functional, cell-based; details: Homo sapiens;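 further: growth inhibition of ZR-75-30 cells, measured with a cell viability readout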
Description: SANGER: Inhibition of human ZR-75-30 cell growth in a cell viability assay.

SW 1116 = test: cells; format: functional, cell-based; details: Homo sapiens;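 further: growth inhibition of SW1116 cells, read out with a cell viability assay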
Description: SANGER: Inhibition of human SW1116 cell growth in a cell viability assay.

RH-18 = test: cells; format: functional, cell-based; details: Homo sapiens, Rh18;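 further: growth inhibition of human RH-18 cells, read out with a cell viability assay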
Description: SANGER: Inhibition of human RH-18 cell growth in a cell viability assay.

NCI-H460 = test: cells; format: functional, cell-based, Homo sapiens;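 further: cell viability assay scoring growth inhibition of human NCI-H460 cells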
Description: SANGER: Inhibition of human NCI-H460 cell growth in a cell viability assay.

SJRH30 = test: cells; format: functional, cell-based; details: Homo sapiens;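 further: growth inhibition of human SJRH30 cells, read out with a cell viability assay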
Description: SANGER: Inhibition of human SJRH30 cell growth in a cell viability assay.

NCI-H2009 = test: cells; format: functional, cell-based, Homo sapiens;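 further: cell viability assay measuring inhibition of NCI-H2009 cell growth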
Description: SANGER: Inhibition of human NCI-H2009 cell growth in a cell viability assay.

OC-314 = test: cells; format: functional, cell-based; details: Homo sapiens
Description: SANGER: Inhibition of human OC-314 cell growth in a cell viability assay.

G-361 = test: cells; format: functional, cell-based, Homo sapiens
YH-13 = test: cells; format: functional, cell-based; details: Homo sapiens;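 further: cell viability readout of growth suppression in the human YH-13 cell line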
Description: SANGER: Inhibition of human YH-13 cell growth in a cell viability assay.

NCI-H2029 = test: cells; format: functional, cell-based; details: Homo sapiens;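 further: Read-out is a viability assay on the cultured cells, and IC50 is the concentration that suppresses cell growth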
Description: SANGER: Inhibition of human NCI-H2029 cell growth in a cell viability assay.

NCI-H1703 = test: cells; format: functional, cell-based, Homo sapiens;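 further: growth inhibition of NCI-H1703 cells, read out via a cell viability assay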
Description: SANGER: Inhibition of human NCI-H1703 cell growth in a cell viability assay.

EW-22 = test: cells; format: functional, cell-based; details: Homo sapiens;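 further: growth inhibition of the EW-22 cell line, measured with a cell viability readout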
Description: SANGER: Inhibition of human EW-22 cell growth in a cell viability assay.

TI-73 = test: cells; format: functional, cell-based; details: Homo sapiens;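 further: cell viability assay measuring how much compounds suppress growth of the cultured cell line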
Description: SANGER: Inhibition of human TI-73 cell growth in a cell viability assay.

D-423MG = test: cells; format: functional, cell-based; details: Homo sapiens
Description: SANGER: Inhibition of human D-423MG cell growth in a cell viability assay.

NCI-H2291 = test: cells; format: functional, cell-based; details: Homo sapiens
Description: SANGER: Inhibition of human NCI-H2291 cell growth in a cell viability assay.

HT55 = test: cells; format: functional, cell-based, Homo sapiens;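 further: cell viability readout measuring growth inhibition of human HT55 cells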
Description: SANGER: Inhibition of human HT55 cell growth in a cell viability assay.

MEL-JUSO = test: cells; format: functional, cell-based, Homo sapiens;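 further: growth inhibition of human MEL-JUSO cells, read out with a cell viability assay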
Description: SANGER: Inhibition of human MEL-JUSO cell growth in a cell viability assay.

A549 = test: cells; format: functional, cell-based; details: Homo sapiens;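 further: growth inhibition of A549 cells, read out with a cell viability assay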
Description: SANGER: Inhibition of human A549 cell growth in a cell viability assay.

DMS-153 = test: cells; format: functional, cell-based; details: Homo sapiens
Description: SANGER: Inhibition of human DMS-153 cell growth in a cell viability assay.

ARH-77 = test: cells; format: functional, cell-based; details: Homo sapiens;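 further: growth inhibition of ARH-77 cells, read out by a cell viability assay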
Description: SANGER: Inhibition of human ARH-77 cell growth in a cell viability assay.

MHH-CALL-2 = test: cells; format: functional, cell-based; details: Homo sapiens;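 further: growth inhibition of the cell line, read out in a cell viability assay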
Description: SANGER: Inhibition of human MHH-CALL-2 cell growth in a cell viability assay.

REH = test: cells; format: functional, cell-based; details: Homo sapiens;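 further: growth inhibition of REH cells determined with a cell viability read-out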
Description: SANGER: Inhibition of human REH cell growth in a cell viability assay.

IM-9 = test: SANGER: Inhibition of human IM-9 cell growth in a cell viability assay.; format: functional, cell-based
SCLC-21H = test: cells; format: functional, cell-based; details: Homo sapiens;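 further: growth inhibition of cultured human SCLC-21H cells, read out with a cell viability assay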
Description: SANGER: Inhibition of human SCLC-21H cell growth in a cell viability assay.

NCI-H345 = test: cells; format: functional, cell-based; details: Homo sapiens;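 further: growth inhibition of NCI-H345 cells measured with a cell viability assay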
Description: SANGER: Inhibition of human NCI-H345 cell growth in a cell viability assay.

THP-1 = test: cells; format: functional, cell-based; details: Homo sapiens;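 further: growth inhibition of THP-1 cells, read out via a cell viability assay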
Description: SANGER: Inhibition of human THP-1 cell growth in a cell viability assay.

MONO-MAC-6 = test: cells; format: functional, cell-based; details: Homo sapiens;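 further: cell viability assay measuring growth inhibition of human MONO-MAC-6 cells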
Description: SANGER: Inhibition of human MONO-MAC-6 cell growth in a cell viability assay.

SIMA = test: cells; format: functional, cell-based, Homo sapiens; details: sima;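 further: growth inhibition of SIMA cells, measured with a cell viability readout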
Description: SANGER: Inhibition of human SIMA cell growth in a cell viability assay.

TE-15 = test: cells; format: functional, cell-based; details: Homo sapiens;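 further: cell viability readout of growth inhibition in TE-15 cells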
Description: SANGER: Inhibition of human TE-15 cell growth in a cell viability assay.

TE-441-T = test: cells; format: functional, cell-based; details: Homo sapiens
Description: SANGER: Inhibition of human TE-441-T cell growth in a cell viability assay.

RPMI 8402 = test: SANGER: Inhibition of human RPMI-8402 cell growth in a cell viability assay.; format: functional, cell-based
NCI-H64 = test: cells; format: functional, cell-based; details: Homo sapiens;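 further: growth inhibition of NCI-H64 cells, read out with a cell viability assay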
Description: SANGER: Inhibition of human NCI-H64 cell growth in a cell viability assay.

CA46 = test: cells; format: functional, cell-based; details: Homo sapiens;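 further: growth inhibition of human CA46 cells, read out by a cell viability assay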
Description: SANGER: Inhibition of human CA46 cell growth in a cell viability assay.

K052 = test: cells; format: functional, cell-based; details: Homo sapiens;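 further: Read-out from a cell viability assay, IC50 reflecting suppression of K052 cell growth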
Description: SANGER: Inhibition of human K052 cell growth in a cell viability assay.

NCI-H2081 = test: cells; format: functional, cell-based; details: Homo sapiens;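 further: growth inhibition of human NCI-H2081 cells, read out with a cell viability assay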
Description: SANGER: Inhibition of human NCI-H2081 cell growth in a cell viability assay.

EVSA-T = test: cells; format: functional, cell-based, Homo sapiens; details: evsa-t;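 further: growth inhibition of EVSA-T cells, read out with a cell viability assay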
Description: SANGER: Inhibition of human EVSA-T cell growth in a cell viability assay.

LU-165 = test: cells; format: functional, cell-based; details: Homo sapiens
Description: SANGER: Inhibition of human LU-165 cell growth in a cell viability assay.

Kasumi 1 = test: cells; format: functional, cell-based; details: Homo sapiens;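 further: growth inhibition of human Kasumi-1 cells, read out by a cell viability assay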
Description: SANGER: Inhibition of human KASUMI-1 cell growth in a cell viability assay.

CAL-148 = test: cells; format: functional, cell-based; details: Homo sapiens
Description: SANGER: Inhibition of human CAL-148 cell growth in a cell viability assay.

SCC-3 = test: cells; format: functional, cell-based; details: Homo sapiens;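 further: cell viability assay measuring inhibition of SCC-3 cell growth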
Description: SANGER: Inhibition of human SCC-3 cell growth in a cell viability assay.

NCI-H2171 = test: cells; format: functional, cell-based; details: Homo sapiens;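 further: growth inhibition of human NCI-H2171 cells, read out by a cell viability assay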
Description: SANGER: Inhibition of human NCI-H2171 cell growth in a cell viability assay.

GDM-1 = test: cells; format: functional, cell-based; details: Homo sapiens;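 further: cell viability readout used to measure growth inhibition of human GDM-1 cells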
Description: SANGER: Inhibition of human GDM-1 cell growth in a cell viability assay.

NB1 = test: cells; format: functional, cell-based; details: Homo sapiens;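 further: reduction of NB1 cell proliferation, read out with a viability assay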
Description: SANGER: Inhibition of human NB1 cell growth in a cell viability assay.

CHP-126 = test: cells; format: functional, cell-based; details: Homo sapiens
Description: SANGER: Inhibition of human CHP-126 cell growth in a cell viability assay.

NCI-H1436 = test: cells; format: functional, cell-based; details: Homo sapiens;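 further: growth suppression of human NCI-H1436 cells, determined with a cell viability readout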
Description: SANGER: Inhibition of human NCI-H1436 cell growth in a cell viability assay.

BL-41 = test: cells; format: functional, cell-based; details: Homo sapiens;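 further: growth inhibition of human BL-41 cells, read out with a cell viability assay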
Description: SANGER: Inhibition of human BL-41 cell growth in a cell viability assay.

BC-3 = test: cells; format: functional, cell-based; details: Homo sapiens;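 further: cell viability assay measuring growth inhibition of human BC-3 cells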
Description: SANGER: Inhibition of human BC-3 cell growth in a cell viability assay.

ST486 = test: SANGER: Inhibition of human ST486 cell growth in a cell viability assay.; format: functional, cell-based
NCI-H889 = test: cells; format: functional, cell-based; details: Homo sapiens;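 further: cell growth inhibition of the cell line, read out with a viability assay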
Description: SANGER: Inhibition of human NCI-H889 cell growth in a cell viability assay.

NCI-H748 = test: cells; format: functional, cell-based; details: Homo sapiens;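 further: growth inhibition of NCI-H748 cells, measured by a cell viability assay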
Description: SANGER: Inhibition of human NCI-H748 cell growth in a cell viability assay.

NCI-H2141 = test: cells; format: functional, cell-based; details: Homo sapiens;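 further: growth inhibition of human NCI-H2141 cells, read out with a cell viability assay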
Description: SANGER: Inhibition of human NCI-H2141 cell growth in a cell viability assay.

NCI-H1522 = test: cells; format: functional, cell-based; details: Homo sapiens;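 further: growth inhibition of NCI-H1522 cells, read out with a cell viability assay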
Description: SANGER: Inhibition of human NCI-H1522 cell growth in a cell viability assay.

SK-MM-2 = test: cells; format: functional, cell-based; details: Homo sapiens;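 further: growth inhibition of human SK-MM-2 cells, read out with a cell viability assay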
Description: SANGER: Inhibition of human SK-MM-2 cell growth in a cell viability assay.

LOUCY = test: cells; format: functional, cell-based; details: Homo sapiens;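 further: growth inhibition of human LOUCY cells, read out with a cell viability assay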
Description: SANGER: Inhibition of human LOUCY cell growth in a cell viability assay.

EB-3 = test: cells; format: functional, cell-based; details: Homo sapiens;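 further: human EB-3 cells, growth inhibition read out via a cell viability assay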
Description: SANGER: Inhibition of human EB-3 cell growth in a cell viability assay.

NCI-H1694 = test: cells; format: functional, cell-based; details: Homo sapiens;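 further: cell viability assay measuring inhibition of growth in human NCI-H1694 cells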
Description: SANGER: Inhibition of human NCI-H1694 cell growth in a cell viability assay.

DG-75 = test: cells; format: functional, cell-based; details: Homo sapiens;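 further: growth inhibition of DG-75 cells, read out with a cell viability assay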
Description: SANGER: Inhibition of human DG-75 cell growth in a cell viability assay.

KMS-12-PE = test: cells; format: functional, cell-based; details: Homo sapiens;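 further: growth inhibition of human KMS-12-PE cells, measured with a cell viability assay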
Description: SANGER: Inhibition of human KMS-12-PE cell growth in a cell viability assay.

SUP-T1 = test: cells; format: functional, cell-based; details: Homo sapiens;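 further: growth inhibition of human SUP-T1 cells, read out as cell viability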
Description: SANGER: Inhibition of human SUP-T1 cell growth in a cell viability assay.

LB647-SCLC = test: cells; format: functional, cell-based; details: Homo sapiens
Description: SANGER: Inhibition of human LB647-SCLC cell growth in a cell viability assay.

NCI-H1417 = test: cells; format: functional, cell-based; details: Homo sapiens
Description: SANGER: Inhibition of human NCI-H1417 cell growth in a cell viability assay.

Measured: IC50

CCOc1nc(NC(=O)Cc2cc(OC)ccc2OC)cc(N)c1C#N
> 10 µM: BT-549 | ZR-75-30 | SW 1116 | RH-18 | NCI-H460; Homo sapiens, NCI-H460 | SJRH30 | NCI-H2009; Homo sapiens, NCI-H2009 | OC-314 | G-361; Homo sapiens, G-361 | YH-13 | NCI-H2029 | NCI-H1703; Homo sapiens, NCI-H1703 | EW-22 | TI-73 | D-423MG | NCI-H2291 | HT55; Homo sapiens, HT55 | MEL-JUSO; Homo sapiens, MEL-JUSO | A549

CC(=O)O[C@@H]1[C@@H](OC(C)=O)[C@@H](O)[C@H](Oc2c(-c3ccc(O)cc3)oc3cc(O)cc(O)c3c2=O)O[C@H]1C
> 10 µM: BT-549 | ZR-75-30 | SW 1116 | RH-18 | NCI-H460; Homo sapiens, NCI-H460 | SJRH30 | NCI-H2009; Homo sapiens, NCI-H2009 | OC-314 | G-361; Homo sapiens, G-361 | YH-13 | NCI-H2029 | NCI-H1703; Homo sapiens, NCI-H1703 | EW-22 | TI-73 | D-423MG | NCI-H2291 | MEL-JUSO; Homo sapiens, MEL-JUSO | A549

COc1cc(F)c(F)c(Nc2ccc(I)cc2F)c1NS(=O)(=O)C1(CC(O)CO)CC1 (configuration not stated)
2.43 µM: HT55; Homo sapiens, HT55
1.83 µM: TI-73
> 5 µM: BT-549 | ZR-75-30 | SW 1116 | RH-18 | SJRH30 | OC-314 | NCI-H2029 | EW-22 | D-423MG
0.116 µM: A549
2.52 µM: NCI-H460; Homo sapiens, NCI-H460
2.68 µM: YH-13
0.397 µM: NCI-H2291

O=C1N=C(NCc2cccs2)S/C1=C\c1ccc2ncccc2c1
> 5 µM: BT-549 | ZR-75-30 | SW 1116 | RH-18 | NCI-H460; Homo sapiens, NCI-H460 | SJRH30 | OC-314 | NCI-H2029 | EW-22 | TI-73 | D-423MG | NCI-H2291 | HT55; Homo sapiens, HT55 | A549
4.76 µM: YH-13

Cc1cc([C@@H](C)Nc2ccccc2C(=O)O)c2nc(N3CCOCC3)cc(=O)n2c1 [AZD-6482]
5.01 µM and > 5.12 µM: NCI-H2009; nci-h2009
1.95 µM: YH-13
1.58 µM: NCI-H2291
4.18 µM: CAL-148
3.9 µM and > 5.12 µM: G-361; g-361
2.62 µM: NCI-H64
3.38 µM and > 5.12 µM: EVSA-T
4.67 µM: TE-15
2.94 µM: D-423MG
2.24 µM: GDM-1
2.06 µM: Kasumi 1
> 5.12 µM: DMS-153 | BT-549 | ARH-77 | MHH-CALL-2 | REH | IM-9 | SCLC-21H | NCI-H345 | THP-1 | MONO-MAC-6 | SIMA | TE-441-T | SW 1116 | RPMI 8402 | CA46 | K052 | RH-18 | NCI-H2081 | LU-165 | NCI-H460; nci-h460 | SCC-3 | SJRH30 | NCI-H2171 | NB1 | OC-314 | NCI-H2029 | CHP-126 | NCI-H1436 | BL-41 | BC-3 | ST486 | NCI-H1703; Homo sapiens, NCI-H1703 | NCI-H1703; nci-h1703 | NCI-H889 | NCI-H748 | EW-22 | NCI-H2141 | NCI-H1522 | SK-MM-2 | LOUCY | EB-3 | NCI-H1694 | DG-75 | KMS-12-PE | HT55; Homo sapiens, HT55 | HT55; ht55 | MEL-JUSO; mel-juso | SUP-T1 | LB647-SCLC | A549 | NCI-H1417

COc1ccc(-c2ccc3c(N4CCOC[C@@H]4C)nc(N4CCOC[C@@H]4C)nc3n2)cc1CO [AZD-8055]
0.195 µM: A549
0.506 µM: NCI-H460; Homo sapiens, NCI-H460
1.03 µM: D-423MG
1.3 µM: OC-314
0.549 µM: YH-13
0.684 µM: EW-22
> 2 µM: BT-549 | ZR-75-30 | SW 1116 | RH-18 | SJRH30 | NCI-H2029 | NCI-H2291 | HT55; Homo sapiens, HT55
0.457 µM: TI-73

CC(=O)O[C@@]12CO[C@@H]1C[C@H](O)[C@@]1(C)C(=O)[C@H](O)C3=C(C)[C@@H](OC(=O)[C@H](O)[C@@H](NC(=O)OC(C)(C)C)c4ccccc4)C[C@@](O)([C@@H](OC(=O)c4ccccc4)[C@H]21)C3(C)C [DOCETAXEL]
0.000882 µM: A549
0.0013 µM: D-423MG
0.00511 µM: Kasumi 1
0.00157 µM: NCI-H1703; Homo sapiens, NCI-H1703
0.00144 µM: TI-73
0.00256 µM: OC-314
0.000791 µM: YH-13
0.00639 µM: MEL-JUSO; Homo sapiens, MEL-JUSO
> 0.01 µM: ZR-75-30 | SW 1116 | RH-18 | G-361; Homo sapiens, G-361 | NCI-H2029 | EW-22 | NCI-H2291 | HT55; Homo sapiens, HT55

CN(Cc1cnc2nc(N)nc(N)c2n1)c1ccc(C(=O)N[C@@H](CCC(=O)O)C(=O)O)cc1 [METHOTREXATE]
> 0.2 µM: ZR-75-30 | SW 1116 | RH-18 | OC-314 | YH-13 | NCI-H2029 | NCI-H1703; Homo sapiens, NCI-H1703 | EW-22 | TI-73 | D-423MG | NCI-H2291 | HT55; Homo sapiens, HT55 | MEL-JUSO; Homo sapiens, MEL-JUSO | A549

COc1ccc(C2=N[C@@H](c3ccc(Cl)cc3)[C@@H](c3ccc(Cl)cc3)N2C(=O)N2CCNC(=O)C2)c(OC(C)C)c1 [NUTLIN-3]
> 8 µM: BT-549 | ZR-75-30 | SW 1116 | SJRH30 | OC-314 | YH-13 | NCI-H2029 | EW-22 | TI-73 | D-423MG | NCI-H2291 | HT55; Homo sapiens, HT55
3.64 µM: A549
4.91 µM: NCI-H460; Homo sapiens, NCI-H460
4.28 µM: RH-18

O=C(c1cc(Cc2n[nH]c(=O)c3ccccc23)ccc1F)N1CCN(C(=O)C2CC2)CC1 [OLAPARIB]
> 5 µM: ZR-75-30 | SW 1116 | RH-18 | OC-314 | YH-13 | NCI-H2029 | NCI-H1703; Homo sapiens, NCI-H1703 | TI-73 | D-423MG | NCI-H2291 | HT55; Homo sapiens, HT55 | MEL-JUSO; Homo sapiens, MEL-JUSO | A549
4.36 µM: EW-22
4.4 µM: Kasumi 1

Cn1cc(C2=C(c3ccc(Cl)cc3Cl)C(=O)NC2=O)c2ccccc21 [SB-216763]
5.29 µM: BT-549
> 10 µM: ZR-75-30 | SW 1116 | RH-18 | NCI-H460; Homo sapiens, NCI-H460 | SJRH30 | NCI-H2009; Homo sapiens, NCI-H2009 | OC-314 | G-361; Homo sapiens, G-361 | YH-13 | NCI-H2029 | NCI-H1703; Homo sapiens, NCI-H1703 | EW-22 | TI-73 | D-423MG | NCI-H2291 | MEL-JUSO; Homo sapiens, MEL-JUSO | A549
